Results from ChEMBL document CHEMBL3046663, “Assessing the effects of three potential chemical repellents to prevent bird damage to corn seeds and seedlings” (Pest Manag Sci, 2013).
Activity calls are given as the source filed them. The calls are words filed in the database; no cut-off is given here.

Experiments:
Columba livia [1] = experiment: Bird repellent activity against Columba livia f. domestica assessed as decrease in damage of maize seedlings grown from compound-treated seeds at 0.085 ml/kg measured after 3 days exposure during aviary trials; assay type: functional, organism-based
Columba livia [2] = experiment: Bird repellent activity against Columba livia f. domestica assessed as decrease in damage of maize seedlings grown from compound-treated seeds at 0.085 ml/kg measured in the field at 2 to 16 days after germination during field trials; assay type: functional, organism-based
Zea mays [3] = experiment: Phytotoxicity against Zea mays (maize) seeds assessed as germination rate at 25 degC after 5-6 days by standard vigour method; assay type: organism-based; conditions: in vivo
Zea mays [4] = experiment: Phytotoxicity against Zea mays (maize) seeds assessed as germination rate at 10 degC after 7 days by standard vigour method; assay type: organism-based; conditions: in vivo, 168 h
Columba livia [5] = experiment: Bird repellent activity against Columba livia f. domestica fed with compound treated maize seeds assessed as feeding deterrence activity at 0.085 ml/kg measured for 4 days by aviary food choice trials; assay type: functional, organism-based
Columba livia [6] = experiment: Bird repellent activity against Columba livia f. domestica fed with compound treated maize seeds assessed as feeding deterrence activity at 1 ml/kg by aviary food choice trials; assay type: functional, organism-based
Columba livia [7] = experiment: Bird repellent activity against Columba livia f. domestica assessed as decrease in damage of maize seedlings grown from compound-treated seeds at 1.4 ml/kg measured after 3 days exposure during aviary trials; assay type: functional, organism-based
Columba livia [8] = experiment: Bird repellent activity against Columba livia f. domestica assessed as decrease in damage of maize seedlings grown from compound-treated seeds at 1.4 ml/kg measured in the field at 2 to 16 days after germination during field trials; assay type: functional, organism-based
Columba livia [9] = experiment: Bird repellent activity against Columba livia f. domestica fed with compound treated maize seeds assessed as feeding deterrence activity at 1.4 ml/kg measured for 4 days by aviary food choice trials; assay type: functional, organism-based

Row | SMILES | inhibition (Columba livia [1]) | inhibition (Columba livia [2]) | Activity (Zea mays [3]) | Activity (Zea mays [4]) | Activity (Columba livia [5]) | Activity (Columba livia [6]) | inhibition (Columba livia [7]) | inhibition (Columba livia [8]) | Activity (Columba livia [9])
1 | COC(=O)c1ccccc1N [METHYL ANTHRANILATE] | inactive | inactive | Non-toxic | Non-toxic | Active | – | – | – | –
2 | O=C1c2ccccc2C(=O)c2ccccc21 [ANTHRAQUINONE] | – | – | Non-toxic | Non-toxic | – | inactive | – | – | –
3 | CC(C)=C1CC[C@@H](C)CC1=O [PULEGONE] | – | – | Non-toxic | Non-toxic | – | – | inactive | inactive | Active
